# In patent US6365359B1 (The Regents of the University of California, priority 1997, dated 2002):
# Where a SMILES comes first, the peptide text is derived from it. [ ]: non-standard residue; d: D form. The star is where a group is joined. AMC = Cc1cc(=O)oc2cc(N*)ccc12; pGlu = O=C1CC[C@@H](C(=O)O)N1; Cbz = O=C(OCc1ccccc1)*
# Tested on: PrP^Sc formation in transiently transfected ScN2a cells
# Assay type: cell-based, mouse
row,Compound,Results (effect on transiently transfected ScN2a cells; inhibitory effect on PrP^Sc formation)
1,2′-O-Anthramiloy Indenosine 3′5′-Cyclic Monophosphate [Compound 40],Negative
2,6-Morpholino-5-Nitroimidazol [Compound 66],Negative
3,"CCCCC(NC(=O)CCl)C(=O)O (racemic) [Compound 6, Chloroacetyl-DL-Nortencine]",Negative
4,"CN1C(=O)C(CCCNC(=N)N)NC1=S.Cl (racemic) [Compound 34, MTH-DL-Arginine HCI]",Negative
5,"O=C(O)C(Cc1cnc[nH]1)N1C(=O)c2ccccc2C1=O (racemic) [Compound 45, N Phrhaloyl-DL-Histidine]",Negative
6,"O=C(O)/C=C/c1c[nH]cn1 [Compound 1, Urocanic Acid]",Negative
7,"Nc1ncnc2c1ncn2[C@H]1O[C@H](CO)[C@@H](O)[C@H]1O [Compound 3, α-Adenosine]",Negative
8,"O=P(O)(O)OC[C@H]1O[C@@H](n2cnc3c2ncn2ccnc32)[C@H](O)[C@@H]1O [Compound 7, 1, N6-Ethenoadenosine-5′-Monophosphate]",Positive
9,"NC[C@H]1O[C@H](O[C@H]2[C@H](O)[C@@H](O)[C@H](N)C[C@@H]2N)[C@H](N)[C@@H](O)[C@@H]1O [Compound 9, Neamine]",Negative
10,"Nc1ccn([C@@H]2O[C@H](CO)[C@@H](OP(=O)(O)OC[C@H]3O[C@@H](n4cnc5c(=O)[nH]c(N)nc54)[C@H](O)[C@@H]3O)[C@H]2O)c(=O)n1 [Compound 10, Cytidylyl (3′5′) Guanosine]",Negative
11,"Cn1c(=O)c2c(ncn2C)n(C)c1=O [Compound 13, Caffeine, reference compound]",Negative
12,"N=C(N)c1ccc(-c2cc3ccc(C(=N)N)cc3[nH]2)cc1 [Compound 14, 4′,6-Diamidino-2 Phenylindole]",Negative
13,"NCCC(O)C(=O)NC1CC(N)C(OC2OC(CN)C(O)[C@H](O)[C@@H]2N)[C@H](OC2O[C@H](CO)[C@@H](O)[C@@H]2O)[C@@H]1O.O=S(=O)(O)O.O=S(=O)(O)O (stereo partly drawn) [Compound 15, Butirosin Disulfate Salt, reference compound]",Negative
14,"CN(C)c1ncnc2c1ncn2[C@@H]1O[C@H](CO)[C@@H](N)[C@H]1O [Compound 16, Puromycin Aminonucleoside]",Negative
15,"CC(=O)O[C@@H]1[C@H](OC(C)=O)[C@@H](CO)O[C@H]1n1cnc2c(=O)[nH]c(N)nc21 [Compound 17, 2′3′-Di-O-Acetylguanoside]",Negative
16,"OC[C@H]1O[C@@H](n2cnc3cncnc32)[C@H](O)[C@@H]1O [Compound 18, Purine Riboside]",Positive
17,"NC[C@H]1O[C@H](O[C@H]2[C@H](O[C@@H]3O[C@H](CO)[C@@H](O)[C@H]3O)[C@@H](O)[C@H](N)C[C@@H]2N)[C@H](N)[C@@H](O)[C@@H]1O [Compound 21, Ribostamycin, reference compound]",Negative
18,"NC[C@@H]1CC[C@@H](N)[C@@H](O[C@H]2[C@H](O)[C@@H](O[C@H]3O[C@H](CO)[C@@H](O)[C@H](N)[C@H]3O)[C@H](N)C[C@@H]2N)O1 [Compound 22, Dibekacin, reference compound]",Negative
19,"CN[C@@H]1[C@@H](O)[C@@H](O[C@@H]2[C@@H](O)[C@H](O[C@H]3OC(CN)=CC[C@H]3N)[C@@H](N)C[C@H]2N)OC[C@]1(C)O [Compound 23, Sisomycin, reference compound]",Negative
20,"N=C(N)c1ccc(Oc2ccc(-c3cc4ccc(C(=N)N)cc4[nH]3)cc2)cc1 [Compound 25, Amidinophenyl (6 Amidino-2-indolyl)Phenyl Ether]",Negative
21,"Nc1ccn([C@@H]2O[C@H](COP(=O)(O)O[C@H]3[C@@H](O)[C@H](n4cnc5c(N)ncnc54)O[C@@H]3CO)[C@@H](O)[C@H]2O)c(=O)n1 [Compound 27, Adenylyl (3′5′)Cytidine]",Negative
22,"Nc1nc2c(ncn2[C@@H]2O[C@H](COP(=O)(O)O[C@@H]3[C@H](O)[C@@H](CO)O[C@H]3n3cnc4c(=O)[nH]c(N)nc43)[C@@H](O)[C@H]2O)c(=O)[nH]1 [Compound 28, Guanylyl (2′5′)Guanosine]",Negative
23,"Nc1ncnc2c1ncn2[C@@H]1O[C@H](CO)[C@H]2OP(=O)([O-])O[C@H]21.[Na+] [Compound 29, Adenosine 2′3′cyclic monophosphase sodium salt]",Negative

row,Compound,Results (effect on transiently transfected ScN2a cells; inhibitory effect on PrP^Sc formation)
1,"CC(=O)O[C@@H]1[C@H](OC(C)=O)[C@@H](CO)O[C@H]1n1cnc2c(N)ncnc21 [Compound 32, 2′3′-Di-O-Acetyladenosine]",Positive
2,"O=P(O)(O)O[C@H]1[C@@H](O)[C@H](n2cnc3c(O)ncnc32)O[C@@H]1CO [Compound 36, Inosine 3′-Monophosphate]",Negative
3,"NC(=NO)c1nc[nH]c1N [Compound 37, Amino Imidazole Carobxamidoxime]",Negative
4,"NC(=O)NC(NC(N)=O)C(=O)O [Compound 38, Allentoic Acid]",Negative
5,"NCC[C@H](O)C(=O)N[C@@H]1C[C@H](N)[C@@H](O[C@H]2O[C@H](CN)[C@@H](O)[C@H](O)[C@H]2O)[C@H](O)[C@H]1O[C@H]1O[C@H](CO)[C@@H](O)[C@H](N)[C@H]1O [Compound 39, Amikacin, reference compound]",Negative
6,"NC(=O)c1ccc(C(=O)O)cc1C(=O)O [Compound 41, Trimellitic Acid Amide]",Negative
7,"[H]/N=C(/N)N[C@H]1[C@H](O)[C@@H](O)[C@H](O[C@@H]2O[C@@H](C)[C@](O)(C=O)[C@H]2O[C@@H]2O[C@@H](CO)[C@H](O)[C@@H](O)[C@@H]2NC)[C@@H](N/C(N)=N\[H])[C@@H]1O [Compound 42, Streptomycin, reference compound]",Negative
8,"CC1(C)C(=O)NC(=O)N1SN1C(=O)NC(=O)C1(C)C [Compound 44, 1,1, Thhiobis 5,5′ Dimethyl hydratoin]",Negative
9,"Nc1ccc(Cc2ccc(N)cc2[N+](=O)[O-])cc1 [Compound 47, 3 mitro 4,4′ methylamediamiline]",Negative
10,"O=C(NC(CO)Cc1c[nH]cn1)c1ccccc1 [Compound 48, n-alphabenzoyl-L-Histidinol]",Negative
11,"COc1ccc(OC)c(NC(=N)N)c1.O=C(O)O [Compound 51, 2,5 Dimethoxy-phenylguanidine Carbonate]",Negative
12,"Cc1cc(=O)oc2cc(NC(=O)[C@H](CCCNC(=N)N)NC(=O)[C@H](Cc3ccccc3)NC(=O)OCc3ccccc3)ccc12.Cl [Compound 53, Z-Phenyl-Arginyl-7-Amido-4-Methylcoumarin Hcl] (Cbz-Phe-Arg-{AMC})",Negative
13,"Br.N=C(N)NCCC[C@H](NC(=O)OCc1ccccc1)C(=O)OCc1ccc([N+](=O)[O-])cc1 [Compound 54, Z-ARG-OBZL (P-NO2)HBR]",Negative
14,"Cl.NC(N)=NC(=O)c1nc(Cl)c(N)nc1N [Compound 69, Amiloride-HCI, reference compound]",Negative
15,BOC-Val-Gly-Arg-βNa-AcOH [Compound 49],Negative
16,H-Ala-Arg-Oh Acetate [Compound 5],Negative
17,Hydroxyguanidino-purine Riboside [Compound 26],Negative
18,Leu-Asp-Val-Pro-Ser (LDVPS; printed: Leu-Asp-Val-Pro-Ser) [Compound 57],Negative
19,Naphtha (Terbutoxycarbonyl)-L-Arginine [Compound 2],Negative
20,PGlu-Gly-Arg-Phe Amide ([pGlu]GRF-NH2; SMILES N=C(N)NCCC[C@H](NC(=O)CNC(=O)[C@@H]1CCC(=O)N1)C(=O)N[C@@H](Cc1ccccc1)C(N)=O) [Compound 20],Negative
21,[Glu]-TRH [Compound 55],negative
22,"[Mei(O)4, D-Lyss, Pho9]-Fragment 4-9 [Compound 30]",Negative
